Legend:
A431 = test: CellTiter-Glo cell viability assay (VHH-based PAX); conditions: A431, PROTAC alone
Protocol: (§1) Several cell viability experiments were performed following the procedure described below: Cells were seeded in different media into white cell culture-treated flat and clear bottom multiwell plates followed by overnight incubation in a humid chamber at 37° C. and 5% CO2. Complexation was performed as described in chapter 7.4.
(§2) The solutions were added to the cells based on the antibody concentration using nanodrop dispension using a Tecan D300e Digital Dispenser and all wells were normalized to the same volume using 0.3% TW20 in PBS pH 7.4 and DMSO to a final solvent concentration of 0.05% DMSO and 0.003% TW20. Incubation was performed at 37° C. at 5% or 10% CO2 dependent on the medium. The assay was developed after 3 days if not otherwise stated using CellTiter-Glo Luminescent Cell Viability Assay as described in the manufacturer's protocol. In brief, the plates were equilibrated to room temperature for 30 minutes. 100 mL CellTiter-Glo Buffer were added to the CellTiter-Glo Substrate Flask and mixed well. 30 μL of the reagent was transferred to each well. After incubation for 3 minutes at room temperature while shaking at 550 rpm, the plate was incubated for another 10 minutes at room temperature. The luminescence was read on an Envision reader from Perkin Elmer. Solvent alone and Bortezomib (1.0E-05 M) served as high control (100% viability) and low control (0% viability), respectively. Raw data were converted into percent cell viability relative to the high and low control, which were set to 100% and 0%, respectively. […] The concentration corresponds to the concentration of PROTACs in the PAX.

MDAMB468 cells = test: CellTiter-Glo cell viability assay (VHH-based PAX); conditions: MDAMB468, PROTAC alone
Protocol: as §1, §2

SKOV3 = test: CellTiter-Glo cell viability assay (VHH-based PAX); conditions: SKOV3, PROTAC alone
Protocol: as §1, §2

HCC827 = test: CellTiter-Glo cell viability assay (VHH-based PAX); conditions: HCC827, PROTAC alone
Protocol: as §1, §2

MCF7 = test: CellTiter-Glo cell viability assay (VHH-based PAX); conditions: MCF7, PROTAC alone
Protocol: as §1, §2

HEPG2 cells = test: CellTiter-Glo cell viability assay (VHH-based PAX); conditions: HEPG2, PROTAC alone
Protocol: as §1, §2

MV411 xenograft = MV411 xenograft efficacy study in female CB17 SCID mice; format: in vivo, mouse
Protocol: Human leukemic MV411 cells were xenografted in immunocompromised mice. Three million MV411 cells were injected subcutaneously in the left flank of untreated female CB17 SCID mice. Randomization of the animals in the different treatment groups and the initiation of the treatment was started after the average tumor size reached 45 mm^2. The control groups were treated with vehicle. The test groups were treated with 0.38 mg/kg GNE987 and 30 mg/kg CD33xMIC7+GNE987 (loaded with 0.38 mg/kg GNE987) once (at day 1). Further, two groups were treated twice, either with 30 mg/kg CD33xMIC7+GNE987 (loaded with 0.38 mg/kg GNE987) at day 1 followed by treatment with 0.38 mg/kg GNE987 at day 8 or with 0.38 mg/kg GNE987 at day 1 and 8. Additionally, one group received 30 mg/kg CD33xMIC5+GNE987 (loaded with 0.38 mg/kg GNE987) once (at day 1) and another group received the antibody control 30 mg/kg CD33xMIC7 without PROTAC once (at day 1). The individual groups were stopped before tumors reached a maximum tumor size (225 mm^2) (FIG. 49).

BRD4 = BRD4 (Homo sapiens, UniProt O60885); test: BRD4 degradation, immunofluorescence imaging in MDA-MB-468 cells; format: cell-based; design: endogenous in cells; host or cells: MDA-MB-468; conditions: 4 nM, 43 h, relative to untreated cells
Protocol: BRD4 was chosen as the model protein for the disclosed invention due to the strong pharmacological effect (cell death) that is induced upon degradation of BRD4. For the evaluation of targeted BRD4 degradation, MDA-MB-468 cells were seeded into a black 96 well clear bottom plates (10,000 cells/well) followed by incubation (37° C., 5% CO2) in a humid chamber overnight. Test compounds were added using a D300e digital dispenser (Tecan) and incubated for 43 h (37° C., 5% CO2, humid chamber). Cells were washed 3× with PBS, fixed in 2% (v/V) formaldehyde for 15 min at rt and washed again (3×). To permeabilize cells, 0.2% (v/V) Triton-X-100 was added for 10 min at rt and removed by washing with PBS (3×). Wells were blocked with 3% (w/v) BSA in PBS for 60 min at rt, washed trice, and cells were incubated with 2.3 μg/mL rabbit anti-BRD4 antibody (Abcam) diluted in 3% BSA/PBS for […] at 4° C. overnight. […] After a final washing step, cells were preserved in 0.1% (w/V) sodium azide and transferred to a Cytation 5 cell imaging reader (Biotek). […] For quantitative analysis of nuclear BRD4 levels, only the green fluorescence (AF488) co-localized with DAPI staining was counted. Green fluorescence was normalized to cell number and expressed relative to untreated cells.

Mouse serum stability = format: in vitro ADME; conditions: 5 μM, 37° C.
Protocol: The mixture was incubated 2 hours at room temperature while shaking at 650 rpm. 15% (vol/vol) 2 M HEPES buffer pH 7.55 were added to mouse serum from Biowest (Lot.no. S18169S2160) followed by sterile filtration.
The incubation was stopped by freezing at −20° C.
The concentration of PROTAC GNE987 was quantified using LC-MS.
Quantification was performed using a total antibody ELISA (FIG. 24).

Molecule `Cc1ncsc1-c1ccc(CNC(=O)[C@@H]2C[C@@H](O)CN2C(=O)[C@@H](NC(=O)CCCCCCCCCCNC(=O)c2cc3c(cc2CS(C)(=O)=O)-c2cn(C)c(=O)c4[nH]cc(c24)CN3c2ncc(F)cc2F)C(C)(C)C)cc1` [GNE987] has an IC50 (A431) of 0.34 nM, an IC50 (MDAMB468 cells) of 0.41 nM and an IC50 (SKOV3) of 0.61 nM. The IC50 (HCC827) was 0.77 nM, the IC50 (MCF7) was 0.15 nM and the IC50 (HEPG2 cells) was 2.6 nM. For the same molecule, the “day post re-dosing where tumors started to grow again” value (MV411 xenograft; 0.38 mg/kg GNE987 at day 1 and 8) was about 3 days, the “anti-tumor effect (in words)” value (MV411 xenograft; dosed once at day 1) was “induced anti-tumor effects” and the “day until which tumor growth was inhibited / tumors started to progress” value (MV411 xenograft; single dose at day 1 (0.38 mg/kg GNE987 or 30 mg/kg PAX)) was about 4 days. For the same molecule, the “remaining BRD4” value (BRD4) was 39.0% and the “stability of GNE987 in mouse serum (LC-MS)” value (Mouse serum stability) was “stable over 72 hours”.
Molecule `Cc1ncsc1-c1ccc([C@H](C)NC(=O)[C@@H]2C[C@@H](O)CN2C(=O)[C@@H](NC(=O)COCCCOCCNC(=O)C[C@@H]2N=C(c3ccc(Cl)cc3)c3c(sc(C)c3C)-n3c(C)nnc32)C(C)(C)C)cc1` [ARV771] has an IC50 (A431) of 65 nM, an IC50 (MDAMB468 cells) of 49 nM and an IC50 (SKOV3) of 32 nM. The IC50 (HCC827) was 91 nM, the IC50 (MCF7) was 26 nM and the IC50 (HEPG2 cells) was 89 nM.
